{
  "source": "patent US6512007B1",
  "about": "“Use of galiella lactone” (Bayer Aktiengesellschaft, priority 2000, dated 2003)",
  "key": {"[1]": {"experiment": "Solubility in solvents", "format": "physicochemical", "excerpt": "Galiella lactone has the physical and chemical properties described hereinafter. […] It was possible with the aid of the mass spectra (Table 1) to establish firstly the molecular weight of 194 Da and then the molecular formula of C11H14O3."}, "[2]": {"tested_on": "Stat1", "experiment": "IL-6-induced tyrosine-701 phosphorylation of Stat1 in HepG2 cells, immunoprecipitation/Western blot", "format": "cell-based, human", "conditions": "HepG2, IL-6 50 ng/ml; all concentrations tested, up to 16 μg/ml, equivalent to 165 μM", "excerpt": "A crucial step in IL-6-dependent intracellular signal transduction is the phosphorylation of tyrosine-705 in Stat3 and tyrosine-701 in Stat1. […] However, inhibitors which inhibit the Stat3 and Stat1 phosphorylation also have crucial effects on other signal cascades, and therefore pharmaceutically usable inhibitors of IL-6-dependent gene expression should, in the concentration range in which they display their pharmacological effect, affect the Stat3 or Stat1 phosphorylation only slightly or not at all.\nSeed out HepG2 cells in Petri dishes (diameter: 10 cm) (OptiMEM medium with 10% fetal calf serum and penicillin/streptomycin (100 iu) cell density: 5×10^5 cell/ml). Incubate in a moist atmosphere with 5% CO2 at 37° C. for 24 h. Replace medium by fresh OptiMEM medium with 0.5% fetal calf serum and penicillin/streptomycin (100 iu) and incubate for a further 48 h. Replace medium by fresh OptiMEM medium with 0.5% fetal calf serum and penicillin/streptomycin (100 iu), add test substances in various concentrations, and incubate for 60 min. 5 μl of the substances dissolved in ethanol, or only ethanol (controls), were added per mixture (10 ml). Induce cells by adding IL-6 (final concentrations 50 ng/ml).\nAfter 20 min. remove medium and wash cell lawn twice wtih 1.5 ml of ice-cold PBS (137 mM NaCl, 2.7 mM KCl, 8.1 mM Na2HPO4×2H2O, 1.5 mM KH2PO4) each time. […]"}},
  "data": [
    {"smiles": "C[C@H]1C=C2C(=O)O[C@H]3CC[C@@H](C1)[C@@]23O", "note": "[galiella lactone]", "values": [
      {"measurement": "solubility in nonpolar solvents", "setting": "[1]; cyclohexane, n-pentane, n-hexane", "result": "scarcely soluble"},
      {"measurement": "solubility in polar solvents", "setting": "[1]; methanol, pyridine, ethyl acetate, acetonitrile, TBME, THF and water", "result": "readily soluble"},
      {"measurement": "effect on the phosphorylation of Stat1", "setting": "[2]", "result": "no effect"}
    ]}
  ]
}
